Reference: patent publication US20150252022A1, “RETINOIC ACID RECEPTOR-RELATED ORPHAN RECEPTOR MODULATORS AND USES THEREOF” (INNOV17 LLC, priority 2014, published 2015)

Experiments:
Assay type in all cases: cell-based
Details in all cases: 72 h; human CD4+ T cells under TH17-polarizing conditions, 3 days, supernatant ELISA
IL-21 = experiment: Human TH17 Cytokine Inhibition as measured by ELISA (IL-21)
Experimental: (§1) Peripheral blood mononuclear cells (PBMCs) were sourced from freshly prepared leukocyte enriched plasma (buffy coat) from healthy donors (New York Blood Center). PBMCs were isolated by density gradient centrifugation using Ficoll-Paque™ PLUS (GE Healthcare). Human CD4+ T cells were seeded into 96-well plates (5×10^4 cells/well) and activated with plate-bound anti-human (h)-CD3 antibody and soluble h-aCD28 (both at 1 ug/ml; eBioscience) and differentiated into TH17 cells with 20 ng/mL h-IL-6, 5 ng/mL h-TGF-β1, 10 ng/mL h-IL-23 (eBioscience) and 10 ng/mL IL-1β (Miltenyi Biotec) in serum-free TexMACS Medium (Miltenyi Biotec) supplemented with 1% Penicillin/Streptomycin (Lonza) for 3 days. CD4+ T cells propagated under TH17-polarizing conditions were cultured in the presence or absence of various concentrations of compounds with a final concentration of 0.1% DMSO. Supernatants were collected and stored at −20° C. until assayed for IL-17A, IL-17F and IL-21 levels by “Ready-Set-Go” ELISA kits (eBioscience) as per manufacturer's instructions. Endpoint absorbance was read at 450 nm using a microplate reader (Perkin Elmer).

IL-17A = experiment: Human TH17 Cytokine Inhibition as measured by ELISA (IL-17A)
Experimental: as §1

IL-17F = experiment: Human TH17 Cytokine Inhibition as measured by ELISA (IL-17F)
Experimental: as §1

Row | IC50 (IL-21) [µM] | IC50 (IL-17A) [µM] | IC50 (IL-17F) [µM] | Compound
1 | < 10 | < 10 | < 10 | Cc1cc2cc(-c3cn[nH]c3)ccc2n1CC1CC(C)N(C(=O)CCc2ccccc2)C1 (racemic) [Example 131, rac-1-(2-methyl-4-((2-methyl-5-(1H-pyrazol-4-yl)-1H-indol-1-yl)methyl)pyrrolidin-1-yl)-3-phenylpropan-1-one]
2 | < 10 | < 10 | < 10 | C[C@H]1C[C@@H](Cn2ccc3cc(-c4cn[nH]c4)ccc32)CN1C(=O)CCc1ccccc1 (relative stereo) [Example 127, cis-1-(4-((5-(1H-pyrazol-4-yl)-1H-indol-1-yl)methyl)-2-methylpyrrolidin-1-yl)-3-phenylpropan-1-one]
3 | < 10 | < 10 | < 10 | C[C@@H]1C[C@@H](Cn2ccc3cc(-c4cn[nH]c4)ccc32)CN1C(=O)CCc1ccccc1 (relative stereo) [Example 129, trans-1-(4-((5-(1H-pyrazol-4-yl)-1H-indol-1-yl)methyl)-2-methylpyrrolidin-1-yl)-3-phenylpropan-1-one]
4 | > 10 | < 10 | > 10 | O=C(c1ccccc1)N1CCC(CN2CCc3cc(-c4cn[nH]c4)ccc32)C1 (centres unmarked) [Example 9, (3-((5-(1H-pyrazol-4-yl)indolin-1-yl)methyl)pyrrolidin-1-yl)(phenyl)methanone]
5 | < 10 | < 10 | < 10 | O=C(Cc1ccccc1)N1CCC(CN2CCc3cc(-c4cn[nH]c4)ccc32)C1 (centres unmarked) [Example 10, 1-(3-((5-(1H-pyrazol-4-yl)indolin-1-yl)methyl)pyrrolidin-1-yl)-2-phenylethanone]
6 | < 10 | < 10 | < 10 | O=C(CCc1ccccc1)N1CCC(CN2CCc3cc(-c4cn[nH]c4)ccc32)C1 (centres unmarked) [Example 11, 1-(3-((5-(1H-pyrazol-4-yl)indolin-1-yl)methyl)pyrrolidin-1-yl)-3-phenylpropan-1-one]
7 | > 10 | < 10 | < 10 | O=C(C1CCCCC1)N1CCC(CN2CCc3cc(-c4cn[nH]c4)ccc32)C1 (centres unmarked) [Example 12, (3-((5-(1H-pyrazol-4-yl)indolin-1-yl)methyl)pyrrolidin-1-yl)(cyclohexyl)methanone]
8 | > 10 | < 10 | < 10 | O=C(CC1CCCCC1)N1CCC(CN2CCc3cc(-c4cn[nH]c4)ccc32)C1 (centres unmarked) [Example 13, 1-(3-((5-(1H-pyrazol-4-yl)indolin-1-yl)methyl)pyrrolidin-1-yl)-2-cyclohexylethanone]
9 | > 10 | < 10 | < 10 | CC(C)CC(=O)N1CCC(CN2CCc3cc(-c4cn[nH]c4)ccc32)C1 (centres unmarked) [Example 14, 1-(3-((5-(1H-pyrazol-4-yl)indolin-1-yl)methyl)pyrrolidin-1-yl)-3-methylbutan-1-one]
10 | < 10 | > 10 | > 10 | CC(C)C(=O)N1CCC(CN2CCc3cc(-c4cn[nH]c4)ccc32)C1 (centres unmarked) [Example 15, 1-(3-((5-(1H-pyrazol-4-yl)indolin-1-yl)methyl)pyrrolidin-1-yl)-2-methylpropan-1-one]
11 | < 10 | < 10 | < 10 | CC1CC(CN2CCc3cc(-c4cn[nH]c4)ccc32)CN1C(=O)c1ccccc1 (centres unmarked) [Example 24, (4-((5-(1H-pyrazol-4-yl)indolin-1-yl)methyl)-2-methylpyrrolidin-1-yl)(phenyl)methanone]
12 | < 10 | < 10 | < 10 | CC1CC(CN2CCc3cc(-c4cn[nH]c4)ccc32)CN1C(=O)Cc1ccccc1 (centres unmarked) [Example 25, 1-(4-((5-(1H-pyrazol-4-yl)indolin-1-yl)methyl)-2-methylpyrrolidin-1-yl)-2-phenylethanone]
13 | < 10 | < 10 | < 10 | CC1CC(CN2CCc3cc(-c4cn[nH]c4)ccc32)CN1C(=O)CCc1ccccc1 (centres unmarked) [Example 26, 1-(4-((5-(1H-pyrazol-4-yl)indolin-1-yl)methyl)-2-methylpyrrolidin-1-yl)-3-phenylpropan-1-one]
14 | < 10 | < 10 | < 10 | CC1CC(CN2CCc3cc(-c4cn[nH]c4)ccc32)CN1C(=O)C1CCCCC1 (centres unmarked) [Example 27, (4-((5-(1H-pyrazol-4-yl)indolin-1-yl)methyl)-2-methylpyrrolidin-1-yl)(cyclohexyl)methanone]
15 | < 10 | < 10 | < 10 | CC1CC(CN2CCc3cc(-c4cn[nH]c4)ccc32)CN1C(=O)CC1CCCCC1 (centres unmarked) [Example 28, 1-(4-((5-(1H-pyrazol-4-yl)indolin-1-yl)methyl)-2-methylpyrrolidin-1-yl)-2-cyclohexylethanone]
16 | < 10 | < 10 | < 10 | CC(C)CC(=O)N1CC(CN2CCc3cc(-c4cn[nH]c4)ccc32)CC1C (centres unmarked) [Example 29, 1-(4-((5-(1H-pyrazol-4-yl)indolin-1-yl)methyl)-2-methylpyrrolidin-1-yl)-3-methylbutan-1-one]

Row | IC50 (IL-21) [µM] | IC50 (IL-17A) [µM] | IC50 (IL-17F) [µM] | Compound
17 | < 10 | < 10 | < 10 | CC(C)C(=O)N1CC(CN2CCc3cc(-c4cn[nH]c4)ccc32)CC1C (centres unmarked) [Example 30, 1-(4-((5-(1H-pyrazol-4-yl)indolin-1-yl)methyl)-2-methylpyrrolidin-1-yl)-2-methylpropan-1-one]
18 | > 10 | < 10 | < 10 | O=C(c1ccccc1)N1CCC(CN2CCc3cc(-c4cn[nH]c4)ccc32)CC1 [Example 39, (4-((5-(1H-pyrazol-4-yl)indolin-1-yl)methyl)piperidin-1-yl)(phenyl)methanone]
19 | < 10 | < 10 | < 10 | O=C(Cc1ccccc1)N1CCC(CN2CCc3cc(-c4cn[nH]c4)ccc32)CC1 [Example 40, 1-(4-((5-(1H-pyrazol-4-yl)indolin-1-yl)methyl)piperidin-1-yl)-2-phenylethanone]
20 | < 10 | < 10 | < 10 | O=C(CCc1ccccc1)N1CCC(CN2CCc3cc(-c4cn[nH]c4)ccc32)CC1 [Example 41, 1-(4-((5-(1H-pyrazol-4-yl)indolin-1-yl)methyl)piperidin-1-yl)-3-phenylpropan-1-one]
21 | < 10 | < 10 | < 10 | O=C(C1CCCCC1)N1CCC(CN2CCc3cc(-c4cn[nH]c4)ccc32)CC1 [Example 42, (4-((5-(1H-pyrazol-4-yl)indolin-1-yl)methyl)piperidin-1-yl)(cyclohexyl)methanone]
22 | < 10 | < 10 | < 10 | O=C(CC1CCCCC1)N1CCC(CN2CCc3cc(-c4cn[nH]c4)ccc32)CC1 [Example 43, 1-(4-((5-(1H-pyrazol-4-yl)indolin-1-yl)methyl)piperidin-1-yl)-2-cyclohexylethanone]
23 | > 10 | < 10 | < 10 | CC(C)CC(=O)N1CCC(CN2CCc3cc(-c4cn[nH]c4)ccc32)CC1 [Example 44, 1-(4-((5-(1H-pyrazol-4-yl)indolin-1-yl)methyl)piperidin-1-yl)-3-methylbutan-1-one]
24 | > 10 | > 10 | > 10 | CC(C)C(=O)N1CCC(CN2CCc3cc(-c4cn[nH]c4)ccc32)CC1 [Example 45, 1-(4-((5-(1H-pyrazol-4-yl)indolin-1-yl)methyl)piperidin-1-yl)-2-methylpropan-1-one]
25 | < 10 | < 10 | < 10 | O=C(c1ccccc1)N1CCCC(CN2CCc3cc(-c4cn[nH]c4)ccc32)CC1 (centres unmarked) [Example 54, (4-((5-(1H-pyrazol-4-yl)indolin-1-yl)methyl)azepan-1-yl)(phenyl)methanone]
26 | < 10 | < 10 | < 10 | O=C(Cc1ccccc1)N1CCCC(CN2CCc3cc(-c4cn[nH]c4)ccc32)CC1 (centres unmarked) [Example 55, 1-(4-((5-(1H-pyrazol-4-yl)indolin-1-yl)methyl)azepan-1-yl)-2-phenylethanone]
27 | < 10 | < 10 | < 10 | O=C(CCc1ccccc1)N1CCCC(CN2CCc3cc(-c4cn[nH]c4)ccc32)CC1 (centres unmarked) [Example 56, 1-(4-((5-(1H-pyrazol-4-yl)indolin-1-yl)methyl)azepan-1-yl)-3-phenylpropan-1-one]
28 | < 10 | < 10 | < 10 | O=C(CC1CCCCC1)N1CCCC(CN2CCc3cc(-c4cn[nH]c4)ccc32)CC1 (centres unmarked) [Example 57, 1-(4-((5-(1H-pyrazol-4-yl)indolin-1-yl)methyl)azepan-1-yl)-2-cyclohexylethanone]
29 | < 10 | < 10 | < 10 | O=C(C1CCCCC1)N1CCCC(Cn2ccc3cc(-c4cn[nH]c4)ccc32)CC1 (centres unmarked) [Example 58, (4-((5-(1H-pyrazol-4-yl)-1H-indol-1-yl)methyl)azepan-1-yl)(cyclohexyl)methanone]
30 | > 10 | < 10 | < 10 | CC(C)CC(=O)N1CCCC(Cn2ccc3cc(-c4cn[nH]c4)ccc32)CC1 (centres unmarked) [Example 59, 1-(4-((5-(1H-pyrazol-4-yl)-1H-indol-1-yl)methyl)azepan-1-yl)-3-methylbutan-1-one]
31 | – | < 10 | < 10 | O=C(c1ccccc1)N1CCC(Cn2ccc3cc(-c4cn[nH]n4)ccc32)CC1 [Example 130, (4-((5-(2H-1,2,3-triazol-4-yl)-1H-indol-1-yl)methyl)piperidin-1-yl)(phenyl)methanone]
